# Measurements from patent publication US10669272B2, “Substituted naphthyridinone compounds useful as T cell activators” (BRISTOL-MYERS SQUIBB COMPANY, priority 2018, dated 2020).
# Where two headings read alike, the source gives them in different places.
# Experiments:
# Human venous whole blood = experiment: Human whole blood IFN-γ assay; type: cell-based; details: human whole blood, read-out: INFg Whole Blood Normalized Agonist EC50;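 note: blood from healthy donors exposed to compound for 1 h before stimulation with anti-CD3 and anti-CD28 at 1 µg/mL each, IFN-γ quantified in supernatant by AlphaLISA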
# human DGKα = target: T1, human DGKα (Homo sapiens, UniProt P23743); experiment: DGKα LIPGLO assay (extruded liposome substrate), in vitro DGK inhibition; type: biochemical; details: read-out: DGKa LIPGLO IC50
# T1 construct: TVMV protease cleavage site (C); Hexa-His (C); made in house; host or cells: Sf9 insect cells (baculovirus, Bac-to-Bac)
# naïve human CD8 T cells = experiment: Human CD8 T cells IFN-γ assay; type: cell-based; details: read-out: HuCD8 INFG Normalized EC50;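 note: Naïve human CD8 T cells stimulated with plate-bound anti-CD3 and soluble anti-CD28, IFN-γ in supernatant quantified by AlphaLISA and converted to pg/mL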
# human DGKζ = target: T2, human DGKζ (Homo sapiens, UniProt Q13574); experiment: DGKζ LIPGLO assay (extruded liposome substrate), in vitro DGK inhibition; type: biochemical; details: read-out: DGKz LIPGLO IC50
# T2 construct: TVMV protease cleavage site (C); Hexa-His (C); made in house; host or cells: Sf9 insect cells (baculovirus, Bac-to-Bac)
# [1] = anti-CD3 plus anti-CD28, 24 hours, 3 μM reference compound = 100% activation
# [2] = Homo sapiens, T-cell, 20 h, naïve human CD8 T cells, anti-CD3 plus anti-CD28, 3 μM reference compound = 100% activation
# [3] = Homo sapiens, 24 h, normalized to 3 μM reference compound with anti-CD3 plus anti-CD28 as 100% activation
# [4] = Homo sapiens, T-cell, 20 h, normalized to 3 μM reference compound with anti-CD3 plus anti-CD28 as 100% activation
# [5] = normalized to 3 μM reference compound with anti-CD3 plus anti-CD28 as 100% activation
# T1 sequence (P23743 with tags, fused parts or gaps): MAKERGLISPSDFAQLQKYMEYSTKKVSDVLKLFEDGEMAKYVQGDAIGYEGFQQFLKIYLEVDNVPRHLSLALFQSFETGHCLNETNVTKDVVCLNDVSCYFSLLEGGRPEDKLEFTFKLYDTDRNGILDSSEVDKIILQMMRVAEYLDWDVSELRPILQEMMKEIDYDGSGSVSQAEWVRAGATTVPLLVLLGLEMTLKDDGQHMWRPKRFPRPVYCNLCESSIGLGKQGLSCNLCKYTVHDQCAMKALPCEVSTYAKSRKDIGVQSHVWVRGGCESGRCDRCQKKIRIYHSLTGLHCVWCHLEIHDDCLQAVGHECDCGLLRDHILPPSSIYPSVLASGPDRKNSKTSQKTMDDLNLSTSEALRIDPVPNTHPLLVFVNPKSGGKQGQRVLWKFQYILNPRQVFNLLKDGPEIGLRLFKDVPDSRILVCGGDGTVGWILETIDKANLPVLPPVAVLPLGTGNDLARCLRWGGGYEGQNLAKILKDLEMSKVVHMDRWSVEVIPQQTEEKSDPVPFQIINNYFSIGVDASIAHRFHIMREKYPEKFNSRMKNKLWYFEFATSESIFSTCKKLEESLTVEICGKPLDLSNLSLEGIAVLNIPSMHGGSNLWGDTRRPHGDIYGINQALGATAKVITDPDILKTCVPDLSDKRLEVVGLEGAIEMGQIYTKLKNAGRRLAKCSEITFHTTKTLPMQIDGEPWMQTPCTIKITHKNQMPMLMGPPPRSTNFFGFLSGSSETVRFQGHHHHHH
# T2 sequence (Q13574 with tags, fused parts or gaps isoform Q13574-4): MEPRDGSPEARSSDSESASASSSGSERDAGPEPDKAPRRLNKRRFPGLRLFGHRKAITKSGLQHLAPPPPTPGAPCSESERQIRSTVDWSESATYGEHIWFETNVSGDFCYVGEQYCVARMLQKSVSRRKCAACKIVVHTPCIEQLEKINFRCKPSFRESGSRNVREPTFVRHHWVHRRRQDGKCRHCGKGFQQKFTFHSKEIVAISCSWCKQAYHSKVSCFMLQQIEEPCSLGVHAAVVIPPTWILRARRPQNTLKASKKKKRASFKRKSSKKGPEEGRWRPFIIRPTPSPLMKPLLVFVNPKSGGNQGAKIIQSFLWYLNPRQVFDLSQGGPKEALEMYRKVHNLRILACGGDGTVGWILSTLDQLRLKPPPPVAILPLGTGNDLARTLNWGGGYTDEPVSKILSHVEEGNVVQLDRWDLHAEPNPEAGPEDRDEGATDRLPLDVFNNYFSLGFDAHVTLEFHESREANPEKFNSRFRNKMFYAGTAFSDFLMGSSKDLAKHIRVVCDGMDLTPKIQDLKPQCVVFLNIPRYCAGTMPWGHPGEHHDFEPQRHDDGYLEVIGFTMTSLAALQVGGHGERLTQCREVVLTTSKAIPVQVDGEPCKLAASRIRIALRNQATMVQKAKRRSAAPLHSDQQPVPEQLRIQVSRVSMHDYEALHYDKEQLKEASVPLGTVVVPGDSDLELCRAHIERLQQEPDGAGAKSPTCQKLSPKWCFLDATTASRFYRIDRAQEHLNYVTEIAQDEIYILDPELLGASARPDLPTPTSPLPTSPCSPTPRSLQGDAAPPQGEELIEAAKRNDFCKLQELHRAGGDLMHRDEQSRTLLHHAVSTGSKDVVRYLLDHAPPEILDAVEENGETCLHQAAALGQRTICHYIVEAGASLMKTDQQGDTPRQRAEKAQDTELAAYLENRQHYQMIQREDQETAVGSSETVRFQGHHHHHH
SMILES,IC50 (human DGKα; liposome (LIPGLO) assay),IC50 (human DGKζ; liposome (LIPGLO) assay),EC50 (Human venous whole blood; [3]),EC50 (naïve human CD8 T cells; [4]),EC50 (Human venous whole blood; [5]),further results
C[C@@H]1CN(c2c(C#N)c(=O)n(C)c3ccc(C#N)nc23)CCN1C(c1cccc(Cl)c1)c1ccc(F)cn1 (stereo partly drawn) [Example 927],,,,,,EC50 (Human venous whole blood; [1]): 800 nM; IC50 (human DGKα; DGKα liposome (LIPGLO) assay): 2600 nM; EC50 (naïve human CD8 T cells; [2]): 300 nM; IC50 (human DGKζ; DGKζ liposome (LIPGLO) assay): 1600 nM
"C[C@@H]1CN(c2cc(=O)n(C)c3ccc(C#N)nc23)[C@@H](C)CN1C(c1ccc(F)cc1)c1cccc(F)c1 (mixture of isomers) [Example 248, 8-[(2S,5R)-4-[(3-fluorophenyl)(4-fluorophenyl)methyl]-2,5-dimethylpiperazin-1-yl]-5-methyl-6-oxo-5,6-dihydro-1,5-naphthyridine-2-carbonitrile]",1300 nM,790 nM,710 nM,53 nM,,
"Cc1cccc(C(c2ccc(F)cc2)N2C[C@H](C)N(c3cc(=O)n(C)c4ccc(C#N)nc34)C[C@H]2C)c1 (single isomer, unassigned) [Example 223]",280 nM,34 nM,870 nM,29 nM,,
"COc1cc(F)ccc1C(N1C[C@H](C)N(c2cc(=O)n(C)c3ccc(C#N)nc23)C[C@H]1C)C(C)(C)C (single isomer, unassigned) [Example 186]",3300 nM,14000 nM,,,20000 nM,EC50 (naïve human CD8 T cells; [5]): 10000 nM
"C[C@@H]1CN(c2cc(=O)n(C)c3ccc(C#N)nc23)[C@@H](C)CN1Cc1c(F)cccc1Cl [Example 261, 8-[(2S,5R)-4-[(2-chloro-6-fluorophenyl)methyl]-2,5-dimethylpiperazin-1-yl]-5-methyl-6-oxo-5,6-dihydro-1,5-naphthyridine-2-carbonitrile]",390 nM,1100 nM,880 nM,230 nM,,
"C[C@@H]1CN(c2cc(=O)n(C)c3ccc(C#N)nc23)[C@@H](C)CN1Cc1c(F)cccc1C#N [Example 269, 8-[(2S,5R)-4-[(2-cyano-6-fluorophenyl)methyl]-2,5-dimethylpiperazin-1-yl]-5-methyl-6-oxo-5,6-dihydro-1,5-naphthyridine-2-carbonitrile]",78000 nM,240000 nM,8800 nM,1200 nM,,
"CCc1cc(F)ccc1C(c1ccc(Cl)cc1)N1C[C@H](C)N(c2cc(=O)n(C)c3ccc(C#N)nc23)C[C@H]1C (single isomer, unassigned) [Example 226]",67000 nM,1400 nM,,,1700 nM,EC50 (naïve human CD8 T cells; [5]): 67 nM
"C[C@@H]1CN(c2cc(=O)n(C)c3ccc(C#N)nc23)[C@@H](C)CN1Cc1ccc(Cl)cc1O [Example 244, 8-[(2S,5R)-4-[(4-chloro-2-hydroxyphenyl)methyl]-2,5-dimethylpiperazin-1-yl]-5-methyl-6-oxo-5,6-dihydro-1,5-naphthyridine-2-carbonitrile]",260 nM,1100 nM,1700 nM,110 nM,,
Cc1ccc(C(c2ccc(F)cc2)N2CCN(c3c(C#N)c(=O)n(C)c4ccc(C#N)nc34)C[C@H]2C)cc1 (stereo partly drawn) [Example 889],,,,,,EC50 (Human venous whole blood; [1]): 670 nM; IC50 (human DGKα; DGKα liposome (LIPGLO) assay): 1300 nM; EC50 (naïve human CD8 T cells; [2]): 220 nM; IC50 (human DGKζ; DGKζ liposome (LIPGLO) assay): 370 nM
"Cc1cccc(C(c2ccc(F)cc2)N2C[C@H](C)N(c3cc(=O)n(C)c4ccc(C#N)nc34)C[C@H]2C)n1 (single isomer, unassigned) [Example 203]",190 nM,29 nM,,,290 nM,EC50 (naïve human CD8 T cells; [5]): 32 nM
"CC(C)[C@H]1CN(c2c(C#N)c(=O)n(C)c3ccc(C#N)nc23)CCN1C(c1ccc(F)cc1)c1ccc(F)cc1 [Example 12, (S)-8-(4-(bis(4-fluorophenyl)methyl)-3-isopropylpiperazin-1-yl)-5-methyl-6-oxo-5,6-dihydro-1,5-naphthyridine-2,7-dicarbonitrile]",2700 nM,58000 nM,13000 nM,10000 nM,,
"C[C@@H]1CN(c2cc(=O)n(C)c3ccc(C#N)nc23)[C@@H](C)CN1C(c1ccc(F)cc1)c1ccccn1 (single isomer, unassigned) [Example 198]",240 nM,870 nM,,,590 nM,EC50 (naïve human CD8 T cells; [5]): 21 nM
C[C@@H]1CN(c2c(C#N)c(=O)n(C)c3ccc(C#N)nc23)CCN1C(c1ccc(F)cc1)c1ccc(F)cn1 (stereo partly drawn) [Example 903],,,,,,EC50 (Human venous whole blood; [1]): 730 nM; IC50 (human DGKα; DGKα liposome (LIPGLO) assay): 630 nM; EC50 (naïve human CD8 T cells; [2]): 140 nM; IC50 (human DGKζ; DGKζ liposome (LIPGLO) assay): 3500 nM
"C[C@@H]1CN(c2cc(=O)n(C)c3ccc(C#N)nc23)[C@@H](C)CN1Cc1c(F)cc(Cl)cc1F [Example 268, 8-[(2S,5R)-4-[(4-chloro-2,6-difluorophenyl)methyl]-2,5-dimethylpiperazin-1-yl]-5-methyl-6-oxo-5,6-dihydro-1,5-naphthyridine-2-carbonitrile]",230 nM,1200 nM,1700 nM,54 nM,,
"C[C@@H]1CN(c2cc(=O)n(C)c3ccc(C#N)nc23)[C@@H](C)CN1C(c1ccc(F)cc1)c1nc(-c2ccc(F)cc2)no1 (single isomer, unassigned) [Example 741]",,,,,,"EC50 (Human venous whole blood; Homo sapiens, 24 h, anti-CD3 plus anti-CD28, 24 hours, 3 μM reference compound = 100% activation): 210 nM; IC50 (human DGKα; DGKα liposome (LIPGLO) assay): 870 nM; EC50 (naïve human CD8 T cells; naïve human CD8 T cells, anti-CD3 plus anti-CD28, 3 μM reference compound = 100% activation): 3.7 nM; IC50 (human DGKζ; DGKζ liposome (LIPGLO) assay): 1400 nM"

# More lines, main results first:
IC50 (human DGKα; liposome (LIPGLO) assay),IC50 (human DGKζ; liposome (LIPGLO) assay),SMILES,EC50 (Human venous whole blood; [3]),EC50 (naïve human CD8 T cells; [4]),EC50 (Human venous whole blood; [5]),further results
130 nM,1900 nM,"C[C@@H]1CN(c2cc(=O)n(C)c3ccc(C#N)nc23)[C@@H](C)CN1Cc1c(F)cccc1F [Example 271, 8-[(2S,5R)-4-[(2,6-difluorophenyl)methyl]-2,5-dimethylpiperazin-1-yl]-5-methyl-6-oxo-5,6-dihydro-1,5-naphthyridine-2-carbonitrile]",1400 nM,550 nM,,
1800 nM,700 nM,"CC(c1ccc(C(F)(F)F)cc1F)N1C[C@H](C)N(c2cc(=O)n(C)c3ccc(C#N)nc23)C[C@H]1C (single isomer, unassigned) [Example 434]",600 nM,5.7 nM,,
1900 nM,3600 nM,"C[C@@H]1CN(c2cc(=O)n(C)c3ccc(C#N)nc23)[C@@H](C)CN1C(c1ccc(F)cc1)c1c(F)cccc1F (single isomer, unassigned) [Example 275]",,,3700 nM,EC50 (naïve human CD8 T cells; [5]): 230 nM
2400 nM,1600 nM,"C[C@@H]1CN(c2cc(=O)n(C)c3ccc(C#N)nc23)[C@@H](C)CN1C(c1ccc(Cl)cc1)c1ccc2c(c1)OC(F)(F)O2 (single isomer, unassigned) [Example 657]",660 nM,27 nM,,
1200 nM,940 nM,"C[C@@H]1CN(c2cc(=O)n(C)c3ccc(C#N)nc23)[C@@H](C)CN1C(c1ccccc1)c1cccc(Cl)c1 (stereo partly drawn) [Example 282, 8-[(2S,5R)-4-[(3-chlorophenyl)(phenyl)methyl]-2,5-dimethylpiperazin-1-yl]-5-methyl-6-oxo-5,6-dihydro-1,5-naphthyridine-2-carbonitrile]",3800 nM,69 nM,,
1700 nM,1500 nM,CC[C@@H]1CN(c2cc(=O)n(C)c3ccc(C#N)nc23)[C@@H](C)CN1C(c1ccc(Cl)cc1)c1ccc(Cl)cc1 [Example 1099],220 nM,2.5 nM,,
77 nM,850 nM,"CC[C@H]1CN(C(c2ccc(F)cc2)c2ncccc2F)[C@H](CC)CN1c1cc(=O)n(C)c2ccc(C#N)nc12 (single isomer, unassigned) [Example 1038]",,,280 nM,EC50 (naïve human CD8 T cells; [5]): 21 nM
3400 nM,570 nM,"C[C@@H]1CN(c2cc(=O)n(C)c3ccc(C#N)nc23)[C@@H](C)CN1C(c1cccc(F)c1)c1cccc(F)c1 [Example 270, 8-[(2S,5R)-4-[bis(3-fluorophenyl)methyl]-2,5-dimethylpiperazin-1-yl]-5-methyl-6-oxo-5,6-dihydro-1,5-naphthyridine-2-carbonitrile]",2000 nM,62 nM,,
1200 nM,1000 nM,"C[C@@H]1CN(c2cc(=O)n(C)c3ccc(C#N)nc23)[C@@H](C)CN1C(c1ccccc1)c1cccc(F)c1F (stereo partly drawn) [Example 276, 8-[(2S,5R)-4-[(2,3-difluorophenyl)(phenyl)methyl]-2,5-dimethylpiperazin-1-yl]-5-methyl-6-oxo-5,6-dihydro-1,5-naphthyridine-2-carbonitrile]",2400 nM,180 nM,,
49 nM,280 nM,"CC[C@H]1CN(C(c2ccc(F)cc2)c2ncccc2F)[C@H](CC)CN1c1cc(=O)n(C)c2ccc(C#N)nc12 (single isomer, unassigned) [Example 1037]",,14 nM,130 nM,
640 nM,1300 nM,"CCc1ccc(C(c2cccc(F)c2)N2C[C@H](C)N(c3cc(=O)n(C)c4ccc(C#N)nc34)C[C@H]2C)nc1 (single isomer, unassigned) [Example 351]",,,89 nM,EC50 (naïve human CD8 T cells; [5]): 31 nM
18 nM,360 nM,"CC[C@H]1CN(C(C)c2ccc(F)cc2)[C@H](C)CN1c1cc(=O)n(C)c2ccc(C#N)nc12 (single isomer, unassigned) [Example 1135]",,22 nM,320 nM,
